Assay results: article PMC7692337, “Masked Phenolic-Selenium Conjugates: Potent and Selective Antiproliferative Agents Overcoming P-gp Resistance” (Pharmaceuticals, 2020)
“Also recorded” adds a separate entry of the source. Like-named read-outs stand apart in the source and are kept apart here.

Tests used:
[1] = tested on: SW1573 (non-small cell lung); test: Antiproliferative activity, NCI protocol; type: cell-based, human
Procedure: (§1) Organochalcogen derivatives prepared herein were evaluated in vitro as potential antiproliferative agents, using a panel of six human tumour cell lines: A549 (non-small cell lung), HBL-100 (breast), HeLa (cervix), SW1573 (non-small cell lung), as drug sensitive lines, T-47D (breast) and WiDr (colon) as drug resistant lines. In addition to precursors 2, 6, 7, 13, 14, 17, 19, ebselen and cisplatin (CDDP) were used as reference drugs. […] In both cases, the NCI protocol, with minor modifications, was followed; selected data, including the selectivity index (S.I.) can be found in Table 3 and full data in Supporting Information (Table S1).
(§2) The in vitro antiproliferative activity was assayed using minor modifications of the protocol of the National Cancer Institute (NCI) of the United States against the six human solid tumor cell and the non-tumor cell lines tested.

[2] = tested on: A549 (non-small cell lung); test: Antiproliferative activity, NCI protocol; type: cell-based, human
Procedure: as §1, §2

HeLa (cervix) = test: Antiproliferative activity, NCI protocol; type: cell-based, human
Procedure: as §1, §2

T-47D (breast) = test: Antiproliferative activity, NCI protocol; type: cell-based, human; conditions: read-out: GI50 T-47D (Breast)
Procedure: as §1, §2

WiDr (colon) = test: Antiproliferative activity, NCI protocol; type: cell-based, human; conditions: read-out: GI50 WiDr (Colon)
Procedure: as §1, §2

HBL-100 (breast) = test: Antiproliferative activity, NCI protocol; type: cell-based, human
Procedure: as §1, §2

[3] = tested on: six human tumour cell lines (A549, HBL-100, HeLa, SW1573, T-47D, WiDr); test: Antiproliferative activity, panel of six human tumour cell lines; type: cell-based; conditions: Homo sapiens; summary over the tested tumour cell lines; highest tested concentration 100 µM; read-out: GI50 over the tumour cell lines (range, bound or words)
Procedure: as §1, §2

[4] = Free radical scavenging (DPPH method); conditions: 30 min incubation, absorbance at 515 nm, read-out: EC50 antiradical activity (DPPH)
Procedure: (§3) In vitro antioxidant properties of key unprotected phenolic derivatives were analyzed using two different methodologies: free radical scavenging capacity, using the DPPH method (2,2-diphenyl-1-picrylhydrazyl), a HAT (hydrogen atom transfer) procedure, widely-used for both natural and synthetic derivatives, and also the capacity for scavenging H2O2, one of the most common ROS in degenerative diseases, including cancer.
DPPH is a commercially-available stable free radical commonly used for in vitro testing of radical scavenging properties of antioxidants.
Reported methodology was used with minor modifications. To a 60 µM methanolic DPPH solution (1.17 mL), the antioxidant solution (5–7 different solutions, 30 µL) or solvent (control, 30 µL) were added. After 30 min. of incubation in the dark, absorbance was measured at 515 nm, and EC50 values were calculated.

SW1573 = test: P-glycoprotein assay, wild type line; type: cell-based; conditions: Homo sapiens, 48 h exposure, reference drugs
Procedure: (§4) This assay allows prediction of whether a certain chemotherapeutic agent could develop chemoresistance when behaving as a P-gp substrate, one of the most common efllux-pumps used for the extrusion of cell xenobiotics. For that purpose, a cell line-based assay was used, in particular the lung cancer cell line in its wild type (SW1573), and its variant overexpressing P-gp (Sw1573/Pgp). Moreover, compounds were tested in the presence and in the absence of verapamil, which is known to inhibit P-gp. Chemotherapeutic agents paclitaxel (PTX) and vinblastine (VB) are used herein as reference compounds. In this assay, the resistance factor (Rf) for a certain compound is defined as the ratio of GI50 in the cell line overexpressing P-gp and the wild one (Table 4), high values of Rf denoting that the compound behaves as a P-gp substrate, and thus, chemoresistance through this mechanism will probably take place.

SW1573/Pgp = test: P-glycoprotein assay, line overexpressing P-gp; type: cell-based, human; conditions: ratio between GI50 values in SW1573/PGP and SW1573 cells; for Rf w Verapamil: with verapamil; for Rf w/o Verapamil: without verapamil
Procedure: as §4

[5] = P-glycoprotein assay, line overexpressing P-gp; type: cell-based, human; conditions: human, with verapamil (concentration not stated); 48 h exposure, with verapamil; reference drugs; read-out: GI50 SW1573/PGP w Verapamil
Procedure: as §4

[6] = H2O2 scavenging (phenol red / horseradish peroxidase); conditions: At 50 µM
Procedure: as §3
Herein, following Bahorun’s methodology, in vitro levels of H2O2 were measured in an indirect fashion, by registering the H2O2-mediated oxidation of phenol red in the presence of horseradish peroxidase, to give a chromophore with a maximum absorption at 610 nm. Accordingly, in the presence of an antioxidant agent, there is an inverse correlation between the observed absorbance, and the scavenging properties. Table 2 depicts the H2O2-scavenging properties of compounds prepared herein, and tested at a final 50 µM concentration.
Reported methodology was used with minor modifications.

[7] = Homo sapiens, SW1573, Table S1, read-out: GI50 SW1573 (Lung)
[8] = Homo sapiens, A549; read-out: GI50 A549 (Lung)
[9] = Homo sapiens, HeLa; read-out: GI50 HeLa (Cervix)
[10] = Homo sapiens, T47D, drug resistant line
[11] = Homo sapiens, WiDr, drug resistant line
[12] = Homo sapiens, HBL-100; read-out: GI50 HBL-100 (Breast)
[13] = with verapamil, read-out: GI50 SW153 w Verapamil
[14] = without verapamil, read-out: GI50 SW1573 w/o Verapamil

Compound	GI50 [1, 7] [µM]	GI50 [2, 8] [µM]	GI50 (HeLa (cervix); [9]) [µM]	GI50 (T-47D (breast); [10]) [µM]	GI50 (WiDr (colon); [11]) [µM]	GI50 (HBL-100 (breast); [12]) [µM]	other results
N#C[Se]CCC(=O)O [Compound 19, 3-Selenocyanatopropanoic acid]							GI50 ([1]; Homo sapiens, SW1573, read-out: GI50 SW1573 (Lung)): > 100 µM; GI50 ([2]; Homo sapiens, A549, read-out: GI50 A549 (Lung)): 18 ± 6 µM; GI50 (HeLa (cervix); Homo sapiens, HeLa, read-out: GI50 HeLa (Cervix)): 32 ± 10 µM; GI50 (T-47D (breast); Homo sapiens, T47D): 36 ± 1 µM; GI50 (WiDr (colon); Homo sapiens, WiDr): 28 ± 4 µM; GI50 (HBL-100 (breast); Homo sapiens, HBL-100, read-out: GI50 HBL-100 (Breast)): 93 ± 9 µM
O=C(CCSSCCC(=O)NCCc1ccc(O)c(O)c1)NCCc1ccc(O)c(O)c1 [Compound 9, 3,3′-Dithiobis{N-[2′’-(3′’’,4′’’-dihydroxyphenyl)ethyl]propanamide}]	42 ± 6	32 ± 1	28 ± 2	45 ± 19	> 100	31 ± 7	GI50 [3]: < 45 µM; EC50 [4]: 4.2 ± 0.1 µM
O=c1c2ccccc2[se]n1-c1ccccc1 [Ebselen, 2-phenyl-1,2-benzoselenazol-3-one, reference compound]	28 ± 4	25 ± 9	26 ± 8	90 ± 14	> 100	13 ± 3	
CC(=O)O[C@H]1C(=O)[C@@]2(C)[C@H]([C@H](OC(=O)c3ccccc3)[C@]3(O)C[C@H](OC(=O)[C@H](O)[C@@H](NC(=O)c4ccccc4)c4ccccc4)C(C)=C1C3(C)C)[C@]1(OC(C)=O)CO[C@@H]1C[C@@H]2O [PTX, paclitaxel, reference compound]							GI50 (SW1573; [13]): 0.0016 ± 0.0002 µM; GI50 (SW1573; [14]): 0.0015 ± 0.0005 µM; Rf w Verapamil (SW1573/Pgp): 2.6; Rf w/o Verapamil (SW1573/Pgp): 128; GI50 at 48 h [5]: 0.0042 ± 0.0009 µM
CC[C@]1(O)C[C@@H]2CN(CCc3c([nH]c4ccccc34)[C@@](C(=O)OC)(c3cc4c(cc3OC)N(C)[C@H]3[C@@](O)(C(=O)OC)[C@H](OC(C)=O)[C@]5(CC)C=CCN6CC[C@]43[C@@H]65)C2)C1 [VB, vinblastine, reference compound]							GI50 (SW1573; [13]): 0.0008 ± 0.0002 µM; GI50 (SW1573; [14]): 0.0009 ± 0.0003 µM; Rf w Verapamil (SW1573/Pgp): 1.3; Rf w/o Verapamil (SW1573/Pgp): 2388; GI50 at 48 h [5]: 0.001 ± 0.0005 µM
O=C(O)CCCSSCCCC(=O)O [Compound 2, 4,4′-Dithiobisbuthyric acid]	> 100	> 100	> 100	> 100	> 100	> 100	
O=C(O)CCSSCCC(=O)O [Compound 7, 3,3′-Dithiobispropionic acid]	> 100	> 100	> 100	> 100	> 100	> 100	
3-phenylselenopropanoic acid [Compound 17]							GI50 ([1]; Table S1, read-out: GI50 SW1573 (Lung)): > 100 µM; GI50 ([2]; read-out: GI50 A549 (Lung)): > 100 µM; GI50 (HeLa (cervix); read-out: GI50 HeLa (Cervix)): > 100 µM; GI50 (T-47D (breast); drug resistant line): > 100 µM; GI50 (WiDr (colon); drug resistant line): > 100 µM; GI50 (HBL-100 (breast); read-out: GI50 HBL-100 (Breast)): > 100 µM
O=C1CCCSSCCCC(=O)Oc2cc(CCO)ccc2O1 [Compound 4, [4”-(2”‘-Hydroxyethyl)-1”,2”-phenylene]-4,4’-dithiobisbutyrate]	> 100	> 100	> 100	> 100	> 100	> 100	EC50 [4]: > 175 µM; % Scavenging of H2O2 [6]: complete loss of ROS scavenging properties; also recorded: --- ^2
